Here are results for 2 compounds from patent US20250255847A1, “[…]s: Novel Drugs for Triple Negative Breast Cancer” (SIMMARON RSEARCH INC, priority 2024, published 2025).

For the assay, the target named is T1, full-length STAT5b protein (Homo sapiens, UniProt P51692).
T1 construct: full-length STAT5b protein melting was assessed with (J) SIM-1, (K) SIM-2, and (L) stattic
T1 sequence (P51692 1-787): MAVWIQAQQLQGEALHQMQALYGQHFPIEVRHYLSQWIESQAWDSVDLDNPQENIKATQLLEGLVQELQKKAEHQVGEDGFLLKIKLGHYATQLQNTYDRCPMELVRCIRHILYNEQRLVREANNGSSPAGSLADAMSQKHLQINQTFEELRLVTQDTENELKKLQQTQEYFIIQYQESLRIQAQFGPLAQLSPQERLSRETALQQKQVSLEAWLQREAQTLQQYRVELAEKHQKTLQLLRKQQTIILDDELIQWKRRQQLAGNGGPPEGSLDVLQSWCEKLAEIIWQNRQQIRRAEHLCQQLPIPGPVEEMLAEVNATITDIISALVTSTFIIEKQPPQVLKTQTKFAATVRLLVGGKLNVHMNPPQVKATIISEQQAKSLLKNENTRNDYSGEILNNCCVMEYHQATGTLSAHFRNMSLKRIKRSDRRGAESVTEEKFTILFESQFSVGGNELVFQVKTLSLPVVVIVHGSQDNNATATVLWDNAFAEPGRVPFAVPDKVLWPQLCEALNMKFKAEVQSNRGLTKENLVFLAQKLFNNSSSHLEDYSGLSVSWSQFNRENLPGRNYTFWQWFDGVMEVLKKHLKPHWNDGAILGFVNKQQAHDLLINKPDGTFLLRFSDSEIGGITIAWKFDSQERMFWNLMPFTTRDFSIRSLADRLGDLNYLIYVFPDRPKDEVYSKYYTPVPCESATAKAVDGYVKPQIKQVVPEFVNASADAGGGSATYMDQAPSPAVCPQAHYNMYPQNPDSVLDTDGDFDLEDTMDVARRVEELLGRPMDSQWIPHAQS
The assay can be described thus: Protein thermal shift binding assay with STAT5b. The following applies: increasing doses. How it is done:
FIG. 5 illustrates an embodiment of the present invention and illustrates evaluations of SIM-1 and SIM-2 as STAT3 inhibitors. (A) Protein thermal shift assay was performed to assess the melting of purified recombinant STAT3 (blue; 0.5 μg protein) (Tm=melting temperature=68.88° C.). The representative melting curves were derived after adding SIM-1 (red; 4 nM), SIM-2 (purple; 8 nM), and positive control stattic (grey; 20 nM) to the STAT3 protein. The differences of melting temperature (ΔTm) between pure protein and protein+ligands are −4.54° C., −4.16° C., and 0.39° C. for SIM-1, SIM-2, and stattic (ΔTm^cut-off>2° C.). (B) Phospho protein array analysis was conducted in cell lysates of MDA-MB-468 cells treated with DMSO control (top left), 25 ng/mL EGF (top right), EGF+10 nM SIM-1 (bottom left), and EGF+SIM-2 (bottom right) for 24 hrs. Each colored arrowhead represents a specific phosphoprotein, and the description was added in the bottom of array images. S=serine and Y=tyrosine. Relative levels of (C) Tyrosine 705 (Y705) phosphorylated STAT3, (D) Serine 727 (S727) phosphorylated STAT3, (E) Tyrosine 693 (Y693) phosphorylated STAT4, (F) Tyrosine 694 ([…]) phosphorylated STAT5A had been derived after normalizing the spot densities (n=5) with respective β-actin spots. Results are mean±SD of five different spot analyses. One-way ANOVA was adopted to test the significance of mean between groups at **p<0.01, and ****p<0.0001. Ns=no significance. Thermal shift assays of increasing doses of (G) SIM-1, (H) SIM-2, and (I) stattic with purified STAT1 protein (0.5 μg protein). The respective ΔTm values were given with the plot after matching with the color code. Similarly, full-length STAT5b protein melting was assessed with (J) SIM-1, (K) SIM-2, and (L) stattic. Results are confirmed after three different experiments.
To confirm the result, PTS assay of STAT1 with SIM-1 (FIG. 5G), SIM-2 (FIG. 5H), and stattic (FIG. 5I) was performed. […] Similar results were observed while performing the binding assay with STAT5b.

For `CCOC(=O)c1c(NC(C)=O)sc2c(Cl)c(/C=N/O)ccc12` [SIM-2, ethyl 2-acetamido-7-chloro-6-(hydroxyiminomethyl)-1-benzothiophene-3-carboxylate], the “shift in the melting curve of STAT5b” value is on record as “unable to produce any significant shift”.

Turning to `O=C(O)CCC(=O)NCc1csc2ccc(Cl)cc12` [SIM-1, 4-[(5-chloro-1-benzothiophen-3-yl)methylamino]-4-oxobutanoic acid], the “shift in the melting curve of STAT5b” value is reported as “unable to produce any significant shift”.
